Experimental findings from patent US20100197502A1, “Crystalline form of [3-(4,5-dihydro-3-isoxazolyl)-2-methyl-4-(methylsulfonyl)phenyl]-(5-hydroxy-1-methyl-1H-pyrazol-4-yl)methanone” (priority 2007, published 2010) are described below.

Data set [1] can be described thus: Stability of formulations (e.g. aqueous suspension concentrates) comprising the solid form. The format is physicochemical. To be noted: compared between forms.
The nature of data set [2]: Stability of the crystalline modification with regard to conversion into another form. To be noted: for stability of the crystalline modification: solid forms of topramezone compared.
A short description of data set [3]: Stability of the solvate at room temperature (release of solvent, conversion). The format is physicochemical. The protocol: Crystallization of topramezone by evaporation of a solution of topramezone in a mixture of toluene with dichloromethane in the volume ratio 2:1 at temperatures below 30° C., in particular at temperatures in the range from 10 to 30° C. yields an unstable solvate V-S, which comprises 1 mol of toluene per mol of topramezone.
Crystallization of topramezone by evaporation of a solution of topramezone in a mixture of chlorobenzene with dichloromethane at temperatures below 30° C., in particular at temperatures in the range from 10 to 30° C. yields an unstable solvate VI-S, which comprises 1 mol of chlorobenzene per mol of topramezone.
Crystallization of topramezone by evaporation of a solution of topramezone in dichloromethane at temperatures below 30° C., in particular at temperatures in the range from 10 to 30° C. yields an unstable solvate VII-S, which comprises dichloromethane.

`Cc1c(C(=O)c2cnn(C)c2O)ccc(S(C)(=O)=O)c1C1=NOCC1` [form I, [3-(4,5-dihydro-3-isoxazolyl)-2-methyl-4-(methylsulfonyl)phenyl]-(5-hydroxy-1-methyl-1H-pyrazol-4-yl)methanone]: the “stability of formulations which comprise the form” value in data set [1] is recorded as “markedly higher”. Moreover, in data set [2] (compared to other solid forms), the “stability with regard to conversion into another form” value is on record as “increased stability”. In data set [2], the “stability of the crystalline modification” value was “stable”.

Consider `Cc1c(C(=O)c2cnn(C)c2O)ccc(S(C)(=O)=O)c1C1=NOCC1` [form VIII, [3-(4,5-dihydro-3-isoxazolyl)-2-methyl-4-(methylsulfonyl)phenyl]-(5-hydroxy-1-methyl-1H-pyrazol-4-yl)methanone], for which the “stability of formulations which comprise the form” value in data set [1] is “lower stability”. In addition, in data set [2], the “stability of the crystalline modification” value is “lower stability”.

`Cc1c(C(=O)c2cnn(C)c2O)ccc(S(C)(=O)=O)c1C1=NOCC1` [form II, [3-(4,5-dihydro-3-isoxazolyl)-2-methyl-4-(methylsulfonyl)phenyl]-(5-hydroxy-1-methyl-1H-pyrazol-4-yl)methanone]: the “stability of formulations which comprise the form” value in data set [1] is recorded as “lower stability”. For the same molecule, the “stability of the crystalline modification” value in data set [2] is “lower stability”.

`Cc1c(C(=O)c2cnn(C)c2O)ccc(S(C)(=O)=O)c1C1=NOCC1` [form V-S]: the “stability of formulations which comprise the form” value in data set [1] (listed as solvate V-S) is reported as “lower stability”. The “stability of the crystalline modification” value in data set [2] is “lower stability”. For the same molecule, in data set [3] (listed as solvate V-S), the “behaviour of the solvate at room temperature” value (“behaviour of the solvate” for short) is “releasing the solvent again and then forms a mixture of the forms II and IV”.

As for `Cc1c(C(=O)c2cnn(C)c2O)ccc(S(C)(=O)=O)c1C1=NOCC1` [form III, [3-(4,5-dihydro-3-isoxazolyl)-2-methyl-4-(methylsulfonyl)phenyl]-(5-hydroxy-1-methyl-1H-pyrazol-4-yl)methanone], the “stability of formulations which comprise the form” value in data set [1] is listed as “lower stability”. The “stability of the crystalline modification” value in data set [2] was “lower stability”.

As to `Cc1c(C(=O)c2cnn(C)c2O)ccc(S(C)(=O)=O)c1C1=NOCC1` [form IV, [3-(4,5-dihydro-3-isoxazolyl)-2-methyl-4-(methylsulfonyl)phenyl]-(5-hydroxy-1-methyl-1H-pyrazol-4-yl)methanone], in data set [1], the “stability of formulations which comprise the form” value is “lower stability”. Also, the “stability of the crystalline modification” value in data set [2] is recorded as “lower stability”.

On to `Cc1c(C(=O)c2cnn(C)c2O)ccc(S(C)(=O)=O)c1C1=NOCC1` [form VI-S], for which the “stability of formulations which comprise the form” value in data set [1] (listed as solvate VI-S) is given as “lower stability”. Also, the “stability of the crystalline modification” value in data set [2] is “lower stability”. Further, the “behaviour of the solvate” value in data set [3] (listed as solvate VI-S) was “releasing the solvent again and then forms the form II”.

Regarding `Cc1c(C(=O)c2cnn(C)c2O)ccc(S(C)(=O)=O)c1C1=NOCC1` [form VII-S], the “stability of formulations which comprise the form” value in data set [1] (listed as solvate VII-S) is listed as “lower stability”. Further, the “stability of the crystalline modification” value in data set [2] was “lower stability”. Also, the “behaviour of the solvate” value in data set [3] (listed as solvate VII-S) was “releasing the solvent again and then forms the form I”.
